Experimental findings from patent US11319299B2, “Substituted carboxamides as inhibitors of WDR5 protein-protein binding” (PROPELLON THERAPEUTICS INC., priority 2016, dated 2022) are described below.

The target in the test is WDR5 (Homo sapiens (Human), UniProt P61964). Kind of test: Surface Plasmon Resonance (SPR) assay, KD and residence time. It counts as binding. Particulars: surface plasmon resonance (SPR); read-out: WDR5 binding affinity (KD). Background: Surface plasmon resonance follows binding to a sensor surface in real time, without labels.

Molecules are shown by their SMILES.

A word on the Kd: it is the free concentration of one partner at which half of the binding sites on the other are occupied at equilibrium, for simple one-to-one binding. Take `C[C@@H]1CN(c2cc(F)c(-c3cnc(N4CCOCC4)nc3)cc2NC(=O)c2cc(N)c(F)cc2C(F)(F)F)C[C@H](C)N1C` [Example 502, 5-amino-4-fluoro-N-[4-fluoro-5-(2-morpholin-4-ylpyrimidin-5-yl)-2-[(3R,5S)-3,4,5-trimethylpiperazin-1-yl]phenyl]-2-(trifluoromethyl)benzamide]: the Kd was determined as 1.15 nM.

For `C[C@@H]1CN(c2cc(F)c(C3=CCN(c4ccc(C5CC5)nn4)CC3)cc2NC(=O)c2c[nH]c(=O)cc2C(F)(F)F)C[C@H](C)N1C` [Example 503, N-[5-[1-(6-cyclopropylpyridazin-3-yl)-3,6-dihydro-2H-pyridin-4-yl]-4-fluoro-2-[(3R,5S)-3,4,5-trimethylpiperazin-1-yl]phenyl]-6-oxo-4-(trifluoromethyl)-1H-pyridine-3-carboxamide], the Kd stood at 2.44 nM.

Turning to `CCc1ccc(N2CC=C(c3cc(NC(=O)c4c[nH]c(=O)cc4C(F)(F)F)c(N4C[C@@H](C)N(C)[C@@H](C)C4)cc3F)CC2)nn1` [Example 504, N-[5-[1-(6-ethylpyridazin-3-yl)-3,6-dihydro-2H-pyridin-4-yl]-4-fluoro-2-[(3R,5S)-3,4,5-trimethylpiperazin-1-yl]phenyl]-6-oxo-4-(trifluoromethyl)-1H-pyridine-3-carboxamide], the dissociation constant (Kd) was found to be 2.44 nM.

As to `COc1cc(C(F)(F)F)c(C(=O)Nc2cc(-c3cnc(N4CCOCC4)nc3)c(F)cc2N2C[C@@H](C)N(C)[C@@H](C)C2)cn1` [Example 506, N-[4-fluoro-5-(2-morpholin-4-ylpyrimidin-5-yl)-2-[(3R,5S)-3,4,5-trimethylpiperazin-1-yl]phenyl]-6-methoxy-4-(trifluoromethyl)pyridine-3-carboxamide], the equilibrium dissociation constant (Kd) stood at 354 nM.

`C[C@@H]1CN(c2ccc(-c3cc(NC(=O)c4c[nH]c(=O)cc4C(F)F)c(N4CCN(C)[C@@H](C)C4)cc3F)cn2)CCO1` [Example 509, 4-(difluoromethyl)-N-[4-fluoro-2-[(3S)-3,4-dimethylpiperazin-1-yl]-5-[6-[(2R)-2-methylmorpholin-4-yl]pyridin-3-yl]phenyl]-6-oxo-1H-pyridine-3-carboxamide]: the Kd came to 0.947 nM.

On to `C[C@@H]1CN(c2ccc(-c3cc(NC(=O)c4c[nH]c(=O)cc4C(F)F)c(N4C[C@@H](C)N(C)[C@@H](C)C4)cc3F)cn2)C[C@H](C)O1` [Example 511, 4-(difluoromethyl)-N-[4-fluoro-5-[6-[(2R,6S)-2,6-dimethylmorpholin-4-yl]pyridin-3-yl]-2-[(3R,5S)-3,4,5-trimethylpiperazin-1-yl]phenyl]-6-oxo-1H-pyridine-3-carboxamide], for which the Kd is 0.779 nM.

`C[C@@H]1CN(c2ccc(-c3cc(NC(=O)c4c[nH]c(=O)cc4C(F)F)c(N4CCN(C)[C@@H](C)C4)cc3F)cn2)C[C@H](C)O1` [Example 514, 4-(difluoromethyl)-N-[4-fluoro-5-[6-[(2R,6S)-2,6-dimethylmorpholin-4-yl]pyridin-3-yl]-2-[(3S)-3,4-dimethylpiperazin-1-yl]phenyl]-6-oxo-1H-pyridine-3-carboxamide]: the equilibrium dissociation constant (Kd) stood at 0.959 nM.

With `C[C@@H]1CN(c2ccc(-c3cc(NC(=O)c4cn(C)c(=O)cc4C(F)F)c(N4CCN(C)[C@@H](C)C4)cc3F)cn2)C[C@H](C)O1` [Example 515, 4-(difluoromethyl)-N-[4-fluoro-5-[6-[(2R,6S)-2,6-dimethylmorpholin-4-yl]pyridin-3-yl]-2-[(3S)-3,4-dimethylpiperazin-1-yl]phenyl]-1-methyl-6-oxopyridine-3-carboxamide], the equilibrium dissociation constant (Kd) is 4.09 nM.

`C[C@@H]1CN(c2ccc(-c3cc(NC(=O)c4cn(C)c(=O)cc4C(F)F)c(N4CCN(C)[C@@H](C)C4)cc3F)cn2)CCO1` [Example 516, 4-(difluoromethyl)-N-[4-fluoro-2-[(3S)-3,4-dimethylpiperazin-1-yl]-5-[6-[(2R)-2-methylmorpholin-4-yl]pyridin-3-yl]phenyl]-1-methyl-6-oxopyridine-3-carboxamide]: the Kd is 4 nM.

Turning to `C[C@@H]1CN(c2cc(F)c(-c3csc(C(=O)NCC4CC4)n3)cc2NC(=O)c2cn(C)c(=O)cc2C(F)(F)F)C[C@H](C)N1C` [Example 523, N-(cyclopropylmethyl)-4-[2-fluoro-5-[[1-methyl-6-oxo-4-(trifluoromethyl)pyridine-3-carbonyl]amino]-4-[(3R,5S)-3,4,5-trimethylpiperazin-1-yl]phenyl]-1,3-thiazole-2-carboxamide], the Kd turned out to be 4.59 nM.

Regarding `C[C@@H]1CN(c2cc(F)c(-c3csc(C(=O)N(C)CC4CC4)n3)cc2NC(=O)c2cn(C)c(=O)cc2C(F)(F)F)C[C@H](C)N1C` [Example 524, N-(cyclopropylmethyl)-4-[2-fluoro-5-[[-methyl-6-oxo-4-(trifluoromethyl)pyridine-3-carbonyl]amino]-4-[(3R,5S)-3,4,5-trimethylpiperazin-1-yl]phenyl]-N-methyl-1,3-thiazole-2-carboxamide], the Kd is 5.03 nM.

With `C[C@@H]1CN(c2cc(F)c(-c3csc(C(=O)NC4CCCCC4)n3)cc2NC(=O)c2cn(C)c(=O)cc2C(F)(F)F)C[C@H](C)N1C` [Example 525, N-cyclohexyl-4-[2-fluoro-5-[[1-methyl-6-oxo-4-(trifluoromethyl)pyridine-3-carbonyl]amino]-4-[(3R,5S)-3,4,5-trimethylpiperazin-1-yl]phenyl]-1,3-thiazole-2-carboxamide], the Kd turned out to be 5.42 nM.

For the compound `C[C@@H]1CN(c2cc(F)c(-c3csc(C(=O)N(C)C4CCCCC4)n3)cc2NC(=O)c2cn(C)c(=O)cc2C(F)(F)F)C[C@H](C)N1C` [Example 526, N-cyclohexyl-4-[2-fluoro-5-[[1-methyl-6-oxo-4-(trifluoromethyl)pyridine-3-carbonyl]amino]-4-[(3R,5S)-3,4,5-trimethylpiperazin-1-yl]phenyl]-N-methyl-1,3-thiazole-2-carboxamide], the equilibrium dissociation constant (Kd) is 4.89 nM.

Turning to `C[C@@H]1CN(c2cc(F)c(-c3csc(C(=O)N4CCOCC4)n3)cc2NC(=O)c2cn(C)c(=O)cc2C(F)(F)F)C[C@H](C)N1C` [Example 527, N-[4-fluoro-5-[2-(morpholine-4-carbonyl)-1,3-thiazol-4-yl]-2-[(3R,5S)-3,4,5-trimethylpiperazin-1-yl]phenyl]-1-methyl-6-oxo-4-(trifluoromethyl)pyridine-3-carboxamide], the equilibrium dissociation constant (Kd) was found to be 5.66 nM.

As to `C[C@@H]1CN(c2cc(F)c(-c3csc(C(=O)N4CCN(C)CC4)n3)cc2NC(=O)c2cn(C)c(=O)cc2C(F)(F)F)C[C@H](C)N1C` [Example 528, N-[4-fluoro-5-[2-(4-methylpiperazine-1-carbonyl)-1,3-thiazol-4-yl]-2-[(3R,5S)-3,4,5-trimethylpiperazin-1-yl]phenyl]-1-methyl-6-oxo-4-(trifluoromethyl)pyridine-3-carboxamide], the dissociation constant (Kd) is 4.05 nM.

Regarding `C[C@@H]1CN(c2cc(F)c(-c3csc(C(=O)NCC4CC4)n3)cc2NC(=O)c2c[nH]c(=O)cc2C(F)(F)F)C[C@H](C)N1C` [Example 531, N-(cyclopropylmethyl)-4-[2-fluoro-5-[[6-oxo-4-(trifluoromethyl)-1H-pyridine-3-carbonyl]amino]-4-[(3R,5S)-3,4,5-trimethylpiperazin-1-yl]phenyl]-1,3-thiazole-2-carboxamide], the Kd was 1.06 nM.

With `C[C@@H]1CN(c2cc(F)c(-c3csc(C(=O)NC4CCCCC4)n3)cc2NC(=O)c2c[nH]c(=O)cc2C(F)(F)F)C[C@H](C)N1C` [Example 533, N-cyclohexyl-4-[2-fluoro-5-[[6-oxo-4-(trifluoromethyl)-1H-pyridine-3-carbonyl]amino]-4-[(3R,5S)-3,4,5-trimethylpiperazin-1-yl]phenyl]-1,3-thiazole-2-carboxamide], the dissociation constant (Kd) is 1.98 nM.

As to `C[C@@H]1CN(c2cc(F)c(-c3csc(C(=O)N(C)C4CCCCC4)n3)cc2NC(=O)c2c[nH]c(=O)cc2C(F)(F)F)C[C@H](C)N1C` [Example 534, N-cyclohexyl-4-[2-fluoro-5-[[6-oxo-4-(trifluoromethyl)-1H-pyridine-3-carbonyl]amino]-4-[(3R,5S)-3,4,5-trimethylpiperazin-1-yl]phenyl]-N-methyl-1,3-thiazole-2-carboxamide], the Kd was found to be 1.31 nM.

Consider `C[C@@H]1CN(c2cc(F)c(-c3csc(C(=O)N4CCOCC4)n3)cc2NC(=O)c2c[nH]c(=O)cc2C(F)(F)F)C[C@H](C)N1C` [Example 535, N-[4-fluoro-5-[2-(morpholine-4-carbonyl)-1,3-thiazol-4-yl]-2-[(3R,5S)-3,4,5-trimethylpiperazin-1-yl]phenyl]-6-oxo-4-(trifluoromethyl)-1H-pyridine-3-carboxamide], for which the dissociation constant (Kd) was determined as 2.8 nM.

For `C[C@@H]1CN(c2cc(F)c(-c3csc(C(=O)N4CCN(C)CC4)n3)cc2NC(=O)c2c[nH]c(=O)cc2C(F)(F)F)C[C@H](C)N1C` [Example 536, N-[4-fluoro-5-[2-(4-methylpiperazine-1-carbonyl)-1,3-thiazol-4-yl]-2-[(3R,5S)-3,4,5-trimethylpiperazin-1-yl]phenyl]-6-oxo-4-(trifluoromethyl)-1H-pyridine-3-carboxamide], the equilibrium dissociation constant (Kd) came out at 1.03 nM.

For `C[C@@H]1CN(c2cc(F)c(-c3ccnc(NC4CCCCC4)n3)cc2NC(=O)c2c[nH]c(=O)cc2C(F)(F)F)C[C@H](C)N1C` [Example 537, N-[5-[2-(cyclohexylamino)pyrimidin-4-yl]-4-fluoro-2-[(3R,5S)-3,4,5-trimethylpiperazin-1-yl]phenyl]-6-oxo-4-(trifluoromethyl)-1H-pyridine-3-carboxamide], the dissociation constant Kd is 0.944 nM.

As for `CNc1nccc(-c2cc(NC(=O)c3c[nH]c(=O)cc3C(F)(F)F)c(N3C[C@@H](C)N(C)[C@@H](C)C3)cc2F)n1` [Example 538, N-[4-fluoro-5-[2-(methylamino)pyrimidin-4-yl]-2-[(3R,5S)-3,4,5-trimethylpiperazin-1-yl]phenyl]-6-oxo-4-(trifluoromethyl)-1H-pyridine-3-carboxamide], the dissociation constant (Kd) turned out to be 3.02 nM.

With `C[C@@H]1CN(c2cc(F)c(-c3ccnc(C#N)n3)cc2NC(=O)c2c[nH]c(=O)cc2C(F)(F)F)C[C@H](C)N1C` [Example 539, N-[5-(2-cyanopyrimidin-4-yl)-4-fluoro-2-[(3R,5S)-3,4,5-trimethylpiperazin-1-yl]phenyl]-6-oxo-4-(trifluoromethyl)-1H-pyridine-3-carboxamide], the Kd is 2.56 nM.
